Experimental data taken from the NIST ThermoML archive (doi:10.1021/je700260f).

Conditions: Liquid, Vibrating tube method

FC(C(F)(F)F)C(F)(F)F [1,1,1,2,3,3,3-heptafluoropropane]
Conditions	mass density [kg/m3]
303.15 K, 31383 kPa	1520.3
303.15 K, 31415 kPa	1520.5
303.15 K, 31442 kPa	1520.5
303.15 K, 31478 kPa	1520.6
303.15 K, 31506 kPa	1520.8
303.15 K, 31538 kPa	1520.8
303.15 K, 31570 kPa	1521.1
303.15 K, 31607 kPa	1521.1
303.15 K, 31634 kPa	1521.1
303.15 K, 31671 kPa	1521.3
303.15 K, 31699 kPa	1521.4
303.15 K, 31745 kPa	1521.4
303.15 K, 31773 kPa	1521.7
303.15 K, 31806 kPa	1521.7
303.15 K, 31839 kPa	1521.9
303.15 K, 31871 kPa	1521.8
303.15 K, 31914 kPa	1522
303.15 K, 33938 kPa	1528.3
303.15 K, 33968 kPa	1528.3
303.15 K, 34013 kPa	1528.4
303.15 K, 34044 kPa	1528.6
303.15 K, 34091 kPa	1528.8
303.16 K, 1756 kPa	1377.1
303.16 K, 1773 kPa	1377.2
303.16 K, 1841 kPa	1377.8
303.16 K, 2155 kPa	1380.4
303.16 K, 2175 kPa	1380.5
303.16 K, 2196 kPa	1380.8
303.16 K, 2220 kPa	1380.9
303.16 K, 2238 kPa	1381
303.16 K, 2262 kPa	1381.2
303.16 K, 2781 kPa	1385.3
303.16 K, 2809 kPa	1385.5
303.16 K, 2833 kPa	1385.7
303.16 K, 2855 kPa	1385.8
303.16 K, 2874 kPa	1386.1
303.16 K, 2903 kPa	1386.2
303.16 K, 2923 kPa	1386.5
303.16 K, 2945 kPa	1386.6
303.16 K, 2970 kPa	1386.7
303.16 K, 3045 kPa	1387.3
303.16 K, 3161 kPa	1388.3
303.16 K, 3180 kPa	1388.4
303.16 K, 3245 kPa	1388.9
303.16 K, 3334 kPa	1389.4
303.16 K, 4314 kPa	1396.7
303.16 K, 4345 kPa	1396.9
303.16 K, 4366 kPa	1397.2
303.16 K, 4395 kPa	1397.2
303.16 K, 4845 kPa	1400.4
303.16 K, 9092 kPa	1427.1
303.16 K, 9131 kPa	1427.4
303.16 K, 9158 kPa	1427.5
303.16 K, 9192 kPa	1427.6
303.16 K, 9223 kPa	1427.9
303.16 K, 20848 kPa	1482.9
303.16 K, 20912 kPa	1483.1
303.16 K, 20941 kPa	1483.3
303.16 K, 20974 kPa	1483.4
303.16 K, 21003 kPa	1483.6
313.14 K, 2256 kPa	1337.4
313.14 K, 2281 kPa	1337.6
313.14 K, 2307 kPa	1337.9
313.14 K, 2329 kPa	1337.9
313.14 K, 2362 kPa	1338.4
313.14 K, 2381 kPa	1338.6
313.14 K, 2406 kPa	1338.8
313.14 K, 2431 kPa	1339.2
313.14 K, 2463 kPa	1339.5
313.14 K, 2485 kPa	1339.7
313.14 K, 2518 kPa	1339.8
313.14 K, 2546 kPa	1340.2
313.14 K, 2571 kPa	1340.5
313.14 K, 2596 kPa	1340.7
313.14 K, 2621 kPa	1340.9
313.14 K, 2650 kPa	1341.2
313.14 K, 2671 kPa	1341.5
313.14 K, 3117 kPa	1345.6
313.14 K, 3144 kPa	1345.9
313.14 K, 3170 kPa	1346
313.14 K, 3193 kPa	1346.3
313.14 K, 3223 kPa	1346.7
313.14 K, 3247 kPa	1346.8
313.14 K, 3275 kPa	1347
313.14 K, 4237 kPa	1355.5
313.14 K, 4266 kPa	1355.8
313.14 K, 4299 kPa	1356.1
313.14 K, 4328 kPa	1356.3
313.14 K, 4487 kPa	1357.8
313.14 K, 4509 kPa	1358
313.14 K, 4539 kPa	1358.2
313.14 K, 4561 kPa	1358.3
313.14 K, 4590 kPa	1358.4
313.14 K, 4614 kPa	1358.7
313.14 K, 4639 kPa	1359
313.14 K, 4660 kPa	1359.2
313.14 K, 4688 kPa	1359.4
313.14 K, 4710 kPa	1359.5
313.14 K, 5002 kPa	1362.2
313.14 K, 6187 kPa	1371.4
313.14 K, 6210 kPa	1371.5
313.14 K, 6240 kPa	1371.6
313.14 K, 6264 kPa	1371.8
313.14 K, 6295 kPa	1372.2
313.14 K, 6319 kPa	1372.4
313.14 K, 6347 kPa	1372.4
313.14 K, 6379 kPa	1372.7
313.14 K, 8595 kPa	1388.5
313.14 K, 12590 kPa	1413.1
313.14 K, 13048 kPa	1415.8
313.14 K, 13083 kPa	1416
313.14 K, 14273 kPa	1422.5
313.14 K, 14312 kPa	1422.7
313.14 K, 14342 kPa	1422.9
313.14 K, 18535 kPa	1443.8
313.14 K, 18569 kPa	1443.9
313.14 K, 18598 kPa	1444.1
313.14 K, 18633 kPa	1444.1
313.14 K, 18662 kPa	1444.3
313.14 K, 25516 kPa	1473.5
313.14 K, 25569 kPa	1473.8
313.14 K, 25615 kPa	1473.9
313.14 K, 25663 kPa	1474
313.14 K, 25698 kPa	1474.2
313.14 K, 25734 kPa	1474.4
313.14 K, 25776 kPa	1474.5
313.14 K, 25819 kPa	1474.7
313.14 K, 25862 kPa	1474.7
313.14 K, 25905 kPa	1475
313.14 K, 25953 kPa	1475.3
313.14 K, 25993 kPa	1475.3
313.14 K, 26035 kPa	1475.5
313.14 K, 26070 kPa	1475.7
313.14 K, 26129 kPa	1475.7
313.14 K, 26171 kPa	1475.9
313.14 K, 26230 kPa	1476.2
313.14 K, 26265 kPa	1476.5
313.14 K, 26307 kPa	1476.7
313.14 K, 26355 kPa	1476.6
313.14 K, 26384 kPa	1476.9
313.14 K, 26431 kPa	1477
313.14 K, 26467 kPa	1477.1
313.14 K, 26516 kPa	1477.3
313.14 K, 26563 kPa	1477.5
313.14 K, 26598 kPa	1477.7
313.14 K, 26634 kPa	1477.8
313.14 K, 26676 kPa	1477.9
313.14 K, 26712 kPa	1478
313.14 K, 26759 kPa	1478.2
313.14 K, 26806 kPa	1478.3
313.14 K, 26855 kPa	1478.6
313.14 K, 26891 kPa	1478.6
313.14 K, 26928 kPa	1478.9
313.14 K, 26976 kPa	1479
313.14 K, 27297 kPa	1480.2
313.14 K, 27651 kPa	1481.6
313.14 K, 27676 kPa	1481.7
313.14 K, 27719 kPa	1481.9
313.14 K, 27749 kPa	1482
313.14 K, 27835 kPa	1482.4
313.14 K, 27864 kPa	1482.4
313.14 K, 28790 kPa	1485.8
313.14 K, 28820 kPa	1485.9
313.14 K, 28855 kPa	1486.1
313.14 K, 28889 kPa	1486.1
313.14 K, 28918 kPa	1486.2
313.14 K, 28953 kPa	1486.3
313.14 K, 28993 kPa	1486.5
313.14 K, 29033 kPa	1486.8
313.14 K, 29059 kPa	1486.6
313.14 K, 29641 kPa	1489
313.14 K, 29682 kPa	1489.1
313.14 K, 29711 kPa	1489.2
313.14 K, 29757 kPa	1489.4
313.14 K, 29798 kPa	1489.5
313.14 K, 29841 kPa	1489.5
313.14 K, 29883 kPa	1489.8
313.14 K, 29915 kPa	1489.9
313.14 K, 29950 kPa	1489.9
313.14 K, 29980 kPa	1490.2
313.14 K, 30015 kPa	1490.2
313.14 K, 30045 kPa	1490.2
313.14 K, 30081 kPa	1490.3
313.14 K, 30117 kPa	1490.6
313.14 K, 30159 kPa	1490.6
313.14 K, 30185 kPa	1490.7
313.14 K, 30217 kPa	1491
313.14 K, 30259 kPa	1491.1
313.14 K, 30299 kPa	1491.3
313.14 K, 30342 kPa	1491.3
313.14 K, 30376 kPa	1491.5
313.14 K, 30424 kPa	1491.8
313.14 K, 30466 kPa	1491.8
313.14 K, 30511 kPa	1492
313.14 K, 30547 kPa	1492
313.14 K, 30593 kPa	1492.2
313.14 K, 30624 kPa	1492.2
313.14 K, 30664 kPa	1492.6
313.14 K, 30690 kPa	1492.5
313.14 K, 30727 kPa	1492.7
313.14 K, 30775 kPa	1492.8
313.14 K, 30815 kPa	1493
313.14 K, 30847 kPa	1493.3
313.14 K, 30889 kPa	1493.2
313.14 K, 30921 kPa	1493.5
313.14 K, 30962 kPa	1493.5
